Measured values as given in patent publication US10441593B2, “Treatment of pain associated with dislocation of endometrium” (PREGLEM S.A., priority 2010, dated 2019).

Tested on: patients with uterine fibroids and adenomyosis or endometriosis
Assay: Clinical study: 5 mg or 10 mg ulipristal on pain in patients with adenomyosis or endometriosis (Example 2)
Assay type: in vivo, human
Set-up: key to PBAC score at the end of treatment (week 13): PBAC score; normal <75, >100 menorrhagia; higher is worse; key to A(SF-MPQ) Score: SF-MPQ Part A pain score; lower score is better; key to B(VAS) Score / B(VAS) CFB: SF-MPQ Part B VAS pain score; lower score is better
Procedure: Different parameters were assessed before treatment (Baseline) and after the end of treatment (13 weeks): • The PBAC score (Pictorial Blood Loss Assessment Chart) gives an estimation of the menstrual blood loss. This score was measured before treatment and continuing up to week 13 of treatment. Normal menstrual bleeding score is <75. Abnormal bleeding (menorrhagia) is characterized by a PBAC score >100. Higher the score, worse is the bleeding. • The Uterine volume was estimated before treatment (Baseline Uterine volume) and the % change in uterine volume was reported at the end of the treatment (week 13). • The SF-M P QPart A (short form of the Mc Gill Pain questionnaire) was used as a measure of the sensory, affective and intensity dimensions of pain. The pain was estimated before treatment and the change was reported at the end of the treatment (week 13). (NOTE: The lowest is the score, the better it is). • The SF-MPQ Part B (short form of the Mc Gill Pain questionnaire) wherein the pain is assessed with a visual analogue scale (VAS) before treatment and the change was reported at the end of the treatment (week 13). (NOTE: The lowest is the score, the better it is). • Discomfort questionnaire (disease specific quality of life questionnaire) estimating the quality of life before treatment and the change was reported at the end of the treatment (week 13). (NOTE: The lowest is the score, the better it is). • The level of Hb (Hemoglobin) was measured before treatment and at the end of the treatment. (NOTE: the higher it is, the better it is.) 3. Results
A double-blinded, randomized, study evaluating the effect of long term oral administration of 5 mg or 10 mg ulipristal in patients with heavy menstrual bleeding and pain.
The control group consisted of patients treated with GnRH agonist.
These patients included women 36 years of age or older with evidence of uterine fibroids and adenomyosis or endometriosis diagnosed by ultrasound.
Patient 210/5252 (candidate having adenomyosis) received a daily dose of 5 mg ulipristal (Esmya®) for 13 weeks and was followed up to week 38. A myomectomy by laparotomy was conducted after Week 13 visit.
Patient 281/5214 (candidate having endometriosis) received a daily dose of 5 mg ulipristal (Esmya®) for 13 weeks and was followed up to week 38.
Patient 210/5095 (candidate having adenomyosis) received a daily dose of 10 mg ulipristal (Esmya®) for 13 weeks and was followed up to week 38. A hysterectomy by laparoscopy was conducted after Week 13 visit.
Patient 210/5308 (candidate having endometriosis) received a daily dose of 10 mg ulipristal (Esmya®) for 13 weeks and was followed up to week 38. A myomectomy by hysteroscopy was conducted after Week 13 visit.
A myomectomy by laparoscopy and hysteroscopy was conducted between Week 26 & 38 visits.
Patient 250/5090 (candidate having endometrioma) received a daily dose of 10 mg ulipristal (Esmya®) for 13 weeks and was followed up to week 38.

[1] = 5 mg/day 13 weeks, patient 210/5252, adenomyosis, Week 5
[2] = 5 mg/day 13 weeks, patient 210/5252, adenomyosis, Week 13
[3] = 5 mg/day 13 weeks, patient 210/5252, adenomyosis, Week 26 follow-up, myomectomy by laparotomy after Week 13
[4] = 5 mg/day 13 weeks, patient 210/5252, adenomyosis, Week 38 follow-up, myomectomy by laparotomy after Week 13
[5] = 5 mg/day 13 weeks, patient 210/5252, adenomyosis, week 9
[6] = 5 mg/day 13 weeks, patient 281/5214, endometriosis, Week 5
[7] = 5 mg/day 13 weeks, patient 281/5214, endometriosis, Week 13
[8] = 5 mg/day 13 weeks, patient 281/5214, endometriosis, Week 17 follow-up, no surgery
[9] = 5 mg/day 13 weeks, patient 281/5214, endometriosis, Week 26 follow-up, no surgery
[10] = 5 mg/day 13 weeks, patient 281/5214, endometriosis, Week 38 follow-up, no surgery
[11] = 5 mg/day 13 weeks, patient 281/5214, endometriosis, week 9
[12] = 10 mg/day 13 weeks, patient 210/5095, adenomyosis, Week 5
[13] = 10 mg/day 13 weeks, patient 210/5095, adenomyosis, Week 13
[14] = 10 mg/day 13 weeks, patient 210/5095, adenomyosis, Week 17 follow-up, hysterectomy by laparoscopy after Week 13
[15] = 10 mg/day 13 weeks, patient 210/5095, adenomyosis, Week 26 follow-up, hysterectomy by laparoscopy after Week 13
[16] = 10 mg/day 13 weeks, patient 210/5095, adenomyosis, Week 38 follow-up, hysterectomy by laparoscopy after Week 13
[17] = 10 mg/day 13 weeks, patient 210/5095, adenomyosis, week 9
[18] = patient 210/5095, 10 mg, adenomyosis and uterine fibroids

Question: With CC(=O)O[C@]1(C(C)=O)CC[C@H]2[C@@H]3CCC4=CC(=O)CCC4=C3[C@@H](c3ccc(N(C)C)cc3)C[C@@]21C [Ulipristal, 17α-acetoxy-11β-[4-N,N-dimethylamino-phenyl)-19-norpregna-4,9-diene-3,20-dione] as the compound, how does the “A(SF-MPQ) CFB” value [1] read?
Answer: −2

Question: What about the “A(SF-MPQ) Score” value [1] of the same compound?
Answer: 14

Question: And the “B(VAS) CFB” value [1]?
Answer: 21

Question: And the “B(VAS) Score” value [1]?
Answer: 64

Question: And the “PBAC CFB” value [1]?
Answer: 150

Question: And the “PBAC Score” value [1]?
Answer: 375

Question: What about the “% Change in Uterine Volume” value [2] of the same compound?
Answer: 6.6%

Question: What about the “A(SF-MPQ) CFB” value [2] of the same compound?
Answer: −3

Question: What about the “A(SF-MPQ) Score” value [2] of the same compound?
Answer: 9

Question: And the “B(VAS) CFB” value [2]?
Answer: −6

Question: What about the “B(VAS) Score” value [2] of the same compound?
Answer: 37

Question: What about the “PBAC CFB” value [2] of the same compound?
Answer: −101

Question: What about the “PBAC Score” value [2] of the same compound?
Answer: 124

Question: And the “Uterine Volume” value [2]?
Answer: 251.7 cm3

Question: What about the “A(SF-MPQ) CFB” value [3] of the same compound?
Answer: −4

Question: What about the “A(SF-MPQ) Score” value [3] of the same compound?
Answer: 8

Question: And the “B(VAS) CFB” value [3]?
Answer: 24

Question: And the “B(VAS) Score” value [3]?
Answer: 67

Question: What about the “PBAC CFB” value [3] of the same compound?
Answer: 530

Question: What about the “PBAC Score” value [3] of the same compound?
Answer: 755

Question: And the “A(SF-MPQ) CFB” value [4]?
Answer: −3

Question: And the “A(SF-MPQ) Score” value [4]?
Answer: 9

Question: And the “B(VAS) CFB” value [4]?
Answer: 27

Question: What about the “B(VAS) Score” value [4] of the same compound?
Answer: 70

Question: What about the “PBAC CFB” value [4] of the same compound?
Answer: 46

Question: What about the “PBAC Score” value [4] of the same compound?
Answer: 271

Question: And the “A(SF-MPQ) CFB” value [5]?
Answer: −1

Question: And the “A(SF-MPQ) Score” value [5]?
Answer: 11

Question: And the “B(VAS) CFB” value [5]?
Answer: 14

Question: What about the “B(VAS) Score” value [5] of the same compound?
Answer: 57

Question: And the “PBAC CFB” value [5]?
Answer: 58

Question: What about the “PBAC Score” value [5] of the same compound?
Answer: 283

Question: What about the “A(SF-MPQ) CFB” value [6] of the same compound?
Answer: −3

Question: What about the “A(SF-MPQ) Score” value [6] of the same compound?
Answer: 1

Question: And the “B(VAS) CFB” value [6]?
Answer: −17

Question: And the “B(VAS) Score” value [6]?
Answer: 3

Question: And the “PBAC CFB” value [6]?
Answer: −174

Question: What about the “PBAC Score” value [6] of the same compound?
Answer: 46

Question: What about the “% Change in Uterine Volume” value [7] of the same compound?
Answer: 21.3%

Question: What about the “A(SF-MPQ) CFB” value [7] of the same compound?
Answer: −4

Question: And the “A(SF-MPQ) Score” value [7]?
Answer: 0

Question: And the “B(VAS) CFB” value [7]?
Answer: −20

Question: And the “B(VAS) Score” value [7]?
Answer: 0

Question: And the “PBAC CFB” value [7]?
Answer: −220

Question: And the “PBAC Score” value [7]?
Answer: 0

Question: What about the “Uterine Volume” value [7] of the same compound?
Answer: 159.1 cm3

Question: What about the “% Change in Uterine Volume” value [8] of the same compound?
Answer: 12.6%

Question: What about the “Uterine Volume” value [8] of the same compound?
Answer: 147.7 cm3

Question: And the “% Change in Uterine Volume” value [9]?
Answer: −21.2%

Question: What about the “B(VAS) CFB” value [9] of the same compound?
Answer: 53

Question: What about the “B(VAS) Score” value [9] of the same compound?
Answer: 73

Question: And the “PBAC CFB” value [9]?
Answer: −168

Question: What about the “PBAC Score” value [9] of the same compound?
Answer: 52

Question: What about the “Uterine Volume” value [9] of the same compound?
Answer: 102.2 cm3

Question: What about the “% Change in Uterine Volume” value [10] of the same compound?
Answer: −24.6%

Question: What about the “A(SF-MPQ) CFB” value [10] of the same compound?
Answer: −4

Question: What about the “A(SF-MPQ) Score” value [10] of the same compound?
Answer: 0

Question: And the “B(VAS) CFB” value [10]?
Answer: −20

Question: And the “B(VAS) Score” value [10]?
Answer: 0

Question: And the “PBAC CFB” value [10]?
Answer: 351

Question: What about the “PBAC Score” value [10] of the same compound?
Answer: 571

Question: What about the “Uterine Volume” value [10] of the same compound?
Answer: 98.9 cm3

Question: What about the “A(SF-MPQ) CFB” value [11] of the same compound?
Answer: −4

Question: And the “A(SF-MPQ) Score” value [11]?
Answer: 0

Question: And the “B(VAS) CFB” value [11]?
Answer: −20

Question: What about the “B(VAS) Score” value [11] of the same compound?
Answer: 0

Question: And the “PBAC CFB” value [11]?
Answer: −220

Question: And the “PBAC Score” value [11]?
Answer: 0

Question: What about the “A(SF-MPQ) CFB” value [12] of the same compound?
Answer: 14

Question: What about the “A(SF-MPQ) Score” value [12] of the same compound?
Answer: 0

Question: And the “B(VAS) CFB” value [12]?
Answer: −88

Question: And the “B(VAS) Score” value [12]?
Answer: 0

Question: And the “PBAC CFB” value [12]?
Answer: −532

Question: What about the “PBAC Score” value [12] of the same compound?
Answer: 328

Question: What about the “% Change in Uterine Volume” value [13] of the same compound?
Answer: −33.8%

Question: What about the “A(SF-MPQ) CFB” value [13] of the same compound?
Answer: −14

Question: And the “A(SF-MPQ) Score” value [13]?
Answer: 0

Question: What about the “B(VAS) CFB” value [13] of the same compound?
Answer: −88

Question: What about the “B(VAS) Score” value [13] of the same compound?
Answer: 0

Question: What about the “PBAC CFB” value [13] of the same compound?
Answer: −860

Question: What about the “PBAC Score” value [13] of the same compound?
Answer: 0

Question: What about the “Uterine Volume” value [13] of the same compound?
Answer: 284.7 cm3

Question: What about the “A(SF-MPQ) CFB” value [14] of the same compound?
Answer: −14

Question: What about the “A(SF-MPQ) Score” value [14] of the same compound?
Answer: 0

Question: And the “A(SF-MPQ) CFB” value [15]?
Answer: −14

Question: And the “A(SF-MPQ) Score” value [15]?
Answer: 0

Question: What about the “B(VAS) CFB” value [15] of the same compound?
Answer: −88

Question: What about the “B(VAS) Score” value [15] of the same compound?
Answer: 0

Question: And the “PBAC Score” value [15]?
Answer: 0

Question: What about the “A(SF-MPQ) CFB” value [16] of the same compound?
Answer: −14

Question: What about the “A(SF-MPQ) Score” value [16] of the same compound?
Answer: 0

Question: What about the “B(VAS) CFB” value [16] of the same compound?
Answer: −88

Question: What about the “B(VAS) Score” value [16] of the same compound?
Answer: 0

Question: What about the “A(SF-MPQ) CFB” value [17] of the same compound?
Answer: 14

Question: What about the “A(SF-MPQ) Score” value [17] of the same compound?
Answer: 0

Question: What about the “B(VAS) CFB” value [17] of the same compound?
Answer: −88

Question: And the “B(VAS) Score” value [17]?
Answer: 0

Question: What about the “PBAC CFB” value [17] of the same compound?
Answer: −860

Question: And the “PBAC Score” value [17]?
Answer: 0

Question: What about the “uterine volume at week 13 compared to baseline” value (3 of 4 patients (210/5095, 210/5308, 250/5090), 10 mg) of the same compound?
Answer: decrease in uterine volume

Question: What about the “bleeding starting from week 9” value [18] of the same compound?
Answer: did not bleed anymore

Question: And the “pain starting from 5th week” value [18]?
Answer: no pain anymore

Question: And the “PBAC value at week 13” value (patient 210/5308, 10 mg/day 13 weeks, endometriosis)?
Answer: 55

Question: And the “pain at week 5, 9, 13 compared to baseline” value (patients 281/5214, 210/5095, 210/5308, 250/5090, 5 mg or 10 mg)?
Answer: improvement in pain

Question: And the “PBAC score at the end of treatment (week 13)” value (patients 281/5214, 210/5095, 250/5090, 5 mg or 10 mg)?
Answer: 0
